Measurements reported in ChEMBL document CHEMBL2086378, “Eudesmane-type sesquiterpenoid and guaianolides from Kandelia candel in a screening program for compounds to overcome TRAIL resistance” (2012).

Assays:
Type in all cases: functional
AGS [1] = test: Cytotoxicity against TRAIL-resistant human AGS cells assessed as inhibition of cell viability at 80 uM after 24 hrs by fluorescence assay in presence of 100 ng/ml TRAIL relative to in absence of TRAIL
AGS [2] = test: Cytotoxicity against TRAIL-resistant human AGS cells assessed as inhibition of cell viability at 50 uM after 24 hrs by fluorescence assay in presence of 100 ng/ml TRAIL relative to in absence of TRAIL
AGS [3] = test: Cytotoxicity against TRAIL-resistant human AGS cells assessed as inhibition of cell viability at 17.5 uM after 24 hrs by fluorescence assay in presence of 100 ng/ml TRAIL relative to in absence of TRAIL
AGS [4] = test: Cytotoxicity against TRAIL-resistant human AGS cells assessed as inhibition of cell viability at 10 uM after 24 hrs by fluorescence assay in presence of 100 ng/ml TRAIL relative to in absence of TRAIL

C=C(C(=O)OC)[C@@H]1CC[C@@]2(C)C=CC(=O)C(C)=C2C1
inhibition (INH) (AGS [1]): 29%

CC(=O)O[C@H]1CC(C)=C2C(=O)C=C(C)[C@@H]2[C@H]2OC(=O)[C@@H](C)[C@@H]21
inhibition (INH) (AGS [2]): 23%

O=c1cc(-c2ccc(O)c(O)c2)oc2cc(O)cc(O)c12 [LUTEOLIN]
inhibition (INH) (AGS [3]): 48%

C/C=C(\C)C(=O)O[C@H]1CC(C)=C2C(=O)C=C(C)[C@@H]2[C@H]2OC(=O)[C@@H](C)[C@@H]21 [MEHIRUGIN B]
inhibition (INH) (AGS [4]): 27%
